Source: patent US12240870B2, “Sequencing method for CAR T cell therapy” (Purdue Research Foundation, priority 2018, dated 2025)

Assays:
unsorted E2-CAR-T cells = assay: 3H-EC17 uptake by E2-CAR-T cells; set-up: species or system human; conditions: unsorted E2-CAR-T cells (~24% EGFRt+, ~95:5 CD8/CD4), 2 hour at room temperature; read-out: Kd of 3H-EC17 binding to E2-CAR-T cells
Procedure: (§1) FIG. 10, Panel A: Kd values of ^3H-EC17 uptake by FR+ target cells after a 2 hour incubation at 37° C. (calculated from the numbers of molecules bound per cell). Panel B: Kd value of ^3H^−EC17 uptake by E2-CAR-T cells (˜24% EGFRt+, ˜95:5 CD8/CD4 ratio) after a 2 hour incubation at room temperate (calculated from total cell-associated radioactivity, DPM).
(§2) The EC17 has already been tested in the clinic for immunotherapy and optical imaging purposes. To directly quantify its bispecific binding affinities, ^3H-EC17 was synthesized and radioligand binding assays were carried out on KB and CHO-β cell lines representing FRα+ and FRβ+ target cells, respectively, and on unsorted EGFRt CAR-T cells representing the effector cells.

MDA-MB-231 xenografts = assay: EC17 dose finding and CRS assessment in MDA-MB-231 tumor-bearing mice; format: in vivo; conditions: for human IFNγ in mouse plasma, fold over tumor-bearing mice with CAR-T cells only: all EC17 treated tumor cohorts
Excerpt: Panel A: Schematic diagram to show dose scheduling of CAR-T cells (˜10 million “clinical facsimile”) plus EC17 dosed 3 different ways in NSG mice without or with pre-established MDA-MB-231 xenografts. Tumor-free mice received EC17 SIW 500 nmol/kg (2 doses on days 2 and 10). Tumor-bearing mice received EC17 as follows: EC17 SIW 500 nmol/kg (5 doses on days 2, 10, 17, 24, and 31), EC17 M/Th/M_Escalation-1 (repeats of 5/50/500 nmol/kg on Monday/Thursday/Monday followed by 1-week break, i,e. on days 2, 6, 10, 17, 20, 24, and 31), or EC17 M/Th/M_Escalation-2 (repeats of 5/100/1000 nmol/kg on Monday/Thursday/Monday followed by 1-week break, i.e. days 2, 6, 10, 17, 20, 24, and 31). Panel B: Systemic levels of human IFNγ on a log 2 scale detected in mouse plasma on days 11 and 12 after CAR-T cell injection in tumor-bearing versus tumor-free mice (i.e., ˜20 and 42 hours after the previous EC17 dose in all treated cohorts). Panel C: Circulating CAR-T cells in mouse blood identified as human CD3ε+ EGFRt+ events by flow cytometry and enumerated per 100 μL of whole blood. Panel D: Measurements of change in body weight and tumor volume in tumor-bearing mice that received CAR-T cells only or CAR-T cells plus EC17 dosed 3 different ways (dashed lines indicated each EC17 dose). n=5 mice per group. All data represent mean±s.e.m. * p<0.05 by one-way ANOVA test.
All animal care and use were performed according to NIH guidelines and in compliance with protocols approved by the Purdue University Animal Use and Care Committee. Female 4 to 5-week-old NOD/SCID gamma (NSG™) mice (stock number: 005557) were purchased from The Jackson Laboratory (Bar Harbor, ME). Unless specifically indicated, all animals were maintained on a FA-deficient diet (TestDiet, St. Louis, MO) upon arrival and throughout the study. To establish subcutaneous xenografts, MDA-MB-231 and HOS-FRα were implanted in the right flank region at 2.5×10^6 and 1×10^6 cells per animal, respectively. For intravenous xenografts, THP1-FRβ cells were inoculated at 5×10^6 cells per animal. Subcutaneous tumors were measured 2-3 times per week with a caliper and calculated using the ellipsoidal formula (length×width^2)/2. […] All animal doses (CAR-T cells, EC17, sodium fluorescein) were given intravenously.
In a therapeutic setting, EC17 CAM can be given before or after CAR-T cell injection. As described herein, the first dose of EC17 was administered 2-3.5 days after CAR-T cells to allow for an observation period of human T cells in tumor-bearing mice. Two batches of unsorted E2-CAR-T cells (23% or 39% EGFRt+, 1:1 CD4/CD8) were used for in vivo studies. On the day of infusion for each experiment (day 0), frozen CAR-T cells were quickly thawed at 37° C., washed 2× with Dulbecco's 1×PBS (pH 7.4) and injected into the tail vein at desired EGFRt+ E2-CAR-T cell doses. In addition, a small aliquot of CAR-T cells was analyzed by flow cytometry for CD4 to CD8 ratio and differentiation status of CAR-T cells. On the first day of EC17 dose, tumor-bearing animals were randomly assigned into groups according to their tumor sizes or the same number of days post intravenous implantation (i.e., THP1-FRβ).
For MDA-MB-231 studies, mice received a high dose (˜10 million) of a “clinical facsimile” of E2-CAR-T cells (˜39% EGFRt+) with a low differentiation profile (FIG. 9). Two days later, 3 different treatment regimens of EC17 were started at an average tumor size of ˜293±39 mm^3 (FIG. 12). The EC17 dosing was given once-a-week (SIW) at 500 nmol/kg on Mondays, or as escalating doses of 5, 50 or 100, and 500 or 1000 nmol/kg (i.e., 5/50/500 or 5/100/1000) on Monday, Thursday, and Monday with a 6-day break in-between cycles. Control mice were left untreated (received CAR-T cells but no EC17). For comparison, a cohort of tumor-free littermates also received the same number of CAR-T cells without or with EC17 SIW at 500 nmol/kg. […]

FRβ (CHO-β) = target: T1, FRβ (CHO-β) (Homo sapiens, UniProt P14207); assay: 3H-EC17 cell-based radioligand binding assay on CHO-β cells; conditions: 2 h at 37° C.
T1 construct: expressed in transfected cells; host or cells: CHO (Chinese hamster ovary) cells
Procedure: as §1
(§3) The bispecific affinities of EC17 CAM (a CAM is equivalent to a “bridge” or the “compound” in this application) were assessed using ^3H-EC17 in cell-based radioligand binding assays. […] The whole cell lysates were quantitated for the level of radioactivity and cellular protein content by standard Pierce BCA protein assay. The number of ^3H-EC17 molecules bound per cell was calculated to determine the dissociation constants (Kd) for FRα (KB) and FRβ (CHO-β) respectively (FIG. 10).
as §2

FRα (KB) = target: T2, FRα (KB) (Homo sapiens, UniProt P15328); assay: 3H-EC17 cell-based radioligand binding assay on KB cells; conditions: 2 h at 37° C.
T2 construct: endogenous in cells; host or cells: KB cells
Procedure: as §1, §3, §2

T2 sequence (P15328 25-234): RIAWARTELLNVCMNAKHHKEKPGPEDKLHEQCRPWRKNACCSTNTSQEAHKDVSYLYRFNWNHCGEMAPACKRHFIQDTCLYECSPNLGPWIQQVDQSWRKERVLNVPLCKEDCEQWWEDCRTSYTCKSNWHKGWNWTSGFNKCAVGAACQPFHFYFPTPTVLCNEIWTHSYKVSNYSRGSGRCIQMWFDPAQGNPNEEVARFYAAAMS
T1 sequence (P14207 17-230): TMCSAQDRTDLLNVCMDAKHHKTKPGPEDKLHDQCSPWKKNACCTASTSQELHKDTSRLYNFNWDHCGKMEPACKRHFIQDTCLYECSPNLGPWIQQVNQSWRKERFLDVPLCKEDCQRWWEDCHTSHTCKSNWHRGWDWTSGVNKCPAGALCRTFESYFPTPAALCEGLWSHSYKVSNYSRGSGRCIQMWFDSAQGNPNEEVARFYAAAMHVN

Compound: Nc1nc2ncc(CNc3ccc(C(=O)N[C@@H](CCC(=O)NCCNC(=S)Nc4ccc(-c5c6ccc(=O)cc-6oc6cc(O)ccc56)c(C(=O)O)c4)C(=O)O)cc3)nc2c(=O)[nH]1 [EC17, FA-(γ)-ethylenediamine-FITC]
- Kd (unsorted E2-CAR-T cells): ~130 nM
- cures (MDA-MB-231 xenografts; EC17-treated cohorts (SIW, Escalation-1, Escalation-2)): 100%
- body weight loss (MDA-MB-231 xenografts; EC17 Escalation-2 regimen 5/100/1000 nmol/kg M/Th/M): persistent body weight loss
- onset of CRS and body weight loss (MDA-MB-231 xenografts; EC17 SIW at 500 nmol/kg): earliest onset of CRS and body weight loss
- human IFNγ in mouse plasma, fold over tumor-bearing mice with CAR-T cells only (MDA-MB-231 xenografts; day 11 (~20 hours after previous EC17 dose), ~10 million CAR-T): ~30 ×
- human IFNγ in mouse plasma, fold over tumor-bearing mice with CAR-T cells only (MDA-MB-231 xenografts; day 12 (~42 hours after previous EC17 dose), ~10 million CAR-T): ~10 ×
- body weight loss (MDA-MB-231 xenografts; tumor-bearing cohorts, continued EC17 dosing independent of the regimen): significant body weight losses
- CRS grade (MDA-MB-231 xenografts; tumor-bearing cohorts, continued EC17 dosing independent of the regimen, ~10 million CAR-T): 2-3
- Kd (FRβ (CHO-β)): 0.8 nM
- Kd (FRα (KB)): 1.7 nM
